Legend:
MAPK14 (human) [1] = biological target: MAPK14 (human) (UniProt Q16539); test: Inhibition of TNF-alpha Production from LPS Stimulated PBMC
MAPK14 (human) [2] = biological target: MAPK14 (human) (UniProt Q16539); test: Inhibition of IL-1beta Production from LPS Stimulated PBMC
MAPK14 (human) [3] = biological target: MAPK14 (human) (UniProt Q16539); test: Inhibition of MAPK14 Kinase Activity
MAPK14 (human) [4] = biological target: MAPK14 (human) (UniProt Q16539); test: Inhibition of TNF-alpha Release in LPS Stimulated Whole Blood Culture; conditions: blood cells
MAPK14 (human) [5] = biological target: MAPK14 (human) (UniProt Q16539); test: Inhibition of IL-1 beta Release from LPS Stimulated Whole Blood Culture; conditions: blood cells

Chain of MAPK14 (human) (Q16539 whole entry, looked up): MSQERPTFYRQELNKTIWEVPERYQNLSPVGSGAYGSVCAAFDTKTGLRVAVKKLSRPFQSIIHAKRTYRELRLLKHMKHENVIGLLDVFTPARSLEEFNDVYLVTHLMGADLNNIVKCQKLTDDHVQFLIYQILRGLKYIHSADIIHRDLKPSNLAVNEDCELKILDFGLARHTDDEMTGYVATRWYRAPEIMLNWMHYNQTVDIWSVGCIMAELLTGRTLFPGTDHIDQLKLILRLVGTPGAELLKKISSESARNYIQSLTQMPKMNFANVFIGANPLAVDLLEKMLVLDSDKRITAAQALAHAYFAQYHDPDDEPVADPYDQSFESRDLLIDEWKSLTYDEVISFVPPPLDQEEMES

| SMILES | IC50 (MAPK14 (human) [1]) | IC50 (MAPK14 (human) [2]) | IC50 (MAPK14 (human) [3]) | IC50 (MAPK14 (human) [4]) | IC50 (MAPK14 (human) [5]) |
| --- | --- | --- | --- | --- | --- |
| CSc1nc(-c2ccc(F)cc2)c(-c2ccnc(Nc3ccccc3)c2)[nH]1 | 0.34 µM | 0.03 µM |  |  |  |
| C[S+]([O-])c1ccc(CSc2nc(-c3ccc(F)cc3)c(-c3ccnc(F)c3)[nH]2)cc1 (centres undefined) | 6.9 µM | 2.45 µM |  |  |  |
| Fc1ccc(-c2nc(SCc3ccccc3)[nH]c2-c2ccnc(NCc3ccccc3)c2)cc1 | 3.2 µM | 0.2 µM |  |  |  |
| Fc1ccc(-c2nc(SCc3ccccc3)[nH]c2-c2ccnc(F)c2)cc1 | 40.5 µM | 2.9 µM |  |  |  |
| CSc1nc(-c2ccc(F)cc2)c(-c2ccnc(NCc3ccccc3)c2)[nH]1 | 0.63 µM | 0.108 µM | 0.65 µM |  |  |
| CSc1nc(-c2ccc(F)cc2)c(-c2ccnc(NCc3ccc(Cl)c(Cl)c3)c2)[nH]1 | 0.72 µM | 0.23 µM |  |  |  |
| C[S+]([O-])c1ccc(CSc2nc(-c3ccc(F)cc3)c(-c3ccnc(Cl)c3)[nH]2)cc1 (centres undefined) | 12 µM | 2.1 µM |  |  |  |
| CSc1nc(-c2ccc(F)cc2)c(-c2ccnc(F)c2)[nH]1 | 2.8 µM | 0.3 µM |  |  |  |
| C[S+]([O-])c1ccc(CSc2nc(-c3ccc(F)cc3)c(-c3ccnc(NCc4ccccc4)c3)[nH]2)cc1 (centres undefined) | 2 µM | 0.47 µM |  |  |  |
| Fc1ccc(-c2nc(SCc3ccccc3)[nH]c2-c2ccnc(Cl)c2)cc1 | 60 µM | 1.8 µM |  |  |  |
| CC(Nc1cc(-c2[nH]c(SCc3ccc([S+](C)[O-])cc3)nc2-c2ccc(F)cc2)ccn1)c1ccccc1 (centres undefined) | 0.91 µM | 0.04 µM | 0.27 µM | 10 µM | 15.7 µM |
| CC(Nc1cc(-c2[nH]c(SCc3ccccc3)nc2-c2ccc(F)cc2)ccn1)c1ccccc1 (centres undefined) | 2.7 µM | 0.045 µM |  |  |  |
| COc1cc(-c2[nH]c(SC)nc2-c2ccc(F)cc2)ccn1 | 1.9 µM | 0.15 µM |  |  |  |
| CSc1nc(-c2ccc(F)cc2)c(-c2ccnc(OC(C)C)c2)[nH]1 | 4.6 µM | 2.7 µM |  | 7.2 µM | 2.2 µM |
| CSc1nc(-c2ccc(F)cc2)c(-c2ccnc(NCc3ccc(C)cc3)c2)[nH]1 | 0.67 µM | 0.085 µM |  | 17.3 µM | 22.3 µM |
| CSc1nc(-c2ccc(F)cc2)c(-c2ccnc(NCCc3ccccc3)c2)[nH]1 | 0.35 µM | 0.031 µM |  | 14.9 µM | 17.1 µM |
| CSc1nc(-c2ccc(F)cc2)c(-c2ccnc(Cl)c2)[nH]1 | 2.2 µM | 0.35 µM |  |  |  |
| COc1ccc(CNc2cc(-c3[nH]c(SC)nc3-c3ccc(F)cc3)ccn2)cc1 | 0.64 µM | 0.056 µM |  |  |  |
| CSc1nc(-c2ccc(F)cc2)c(-c2ccnc(NCc3ccc(Cl)cc3)c2)[nH]1 | 0.5 µM | 0.15 µM |  | 14.8 µM | 13.3 µM |
| CSc1nc(-c2ccc(F)cc2)c(-c2cc[nH]c(=O)c2)[nH]1 | 3.1 µM | 0.5 µM |  |  |  |
| COc1ccc(CNc2cc(-c3[nH]c(SCc4ccccc4)nc3-c3ccc(F)cc3)ccn2)cc1 | 21 µM | 0.18 µM |  |  |  |

— the Kinase Knowledgebase extract (Sharma et al. 2016)
